Patent publication US20260374754A1, “N-((ISOQUINOLIN-6-YL)METHYL)-1H-PYRAZOLE-4-CARBOXAMIDE DERIVATIVES AS PLASMA KALLIKREIN INHIBITORS FOR THE TREATMENT OF HEREDITARY ANGIODEMA” (Takeda Pharmaceutical Company Limited, priority 2022, published 2026)

These molecules were tested against human activated kallikrein enzyme (Homo sapiens, UniProt P03952) (assay: Inhibition of human activated plasma kallikrein, fluorogenic PFR-AMC substrate, 500 pM enzyme format). Conditions: 500 pM activated kallikrein; 300 μM PFR-AMC; 30 min preincubation; 10 min room temperature; pH 7.5; read-out: Primary Dose Response Assay: Average EC50.
Sequence of human activated kallikrein enzyme (P03952 391-638 limits assumed): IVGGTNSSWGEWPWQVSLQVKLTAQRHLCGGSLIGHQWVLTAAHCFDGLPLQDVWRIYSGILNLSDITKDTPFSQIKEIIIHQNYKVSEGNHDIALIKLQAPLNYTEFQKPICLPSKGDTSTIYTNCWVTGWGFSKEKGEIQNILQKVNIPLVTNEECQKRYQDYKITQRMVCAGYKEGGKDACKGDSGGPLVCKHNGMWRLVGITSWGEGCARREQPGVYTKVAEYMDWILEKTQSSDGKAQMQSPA
Sequence of human activated kallikrein enzyme (P03952 20-390 partner limits assumed): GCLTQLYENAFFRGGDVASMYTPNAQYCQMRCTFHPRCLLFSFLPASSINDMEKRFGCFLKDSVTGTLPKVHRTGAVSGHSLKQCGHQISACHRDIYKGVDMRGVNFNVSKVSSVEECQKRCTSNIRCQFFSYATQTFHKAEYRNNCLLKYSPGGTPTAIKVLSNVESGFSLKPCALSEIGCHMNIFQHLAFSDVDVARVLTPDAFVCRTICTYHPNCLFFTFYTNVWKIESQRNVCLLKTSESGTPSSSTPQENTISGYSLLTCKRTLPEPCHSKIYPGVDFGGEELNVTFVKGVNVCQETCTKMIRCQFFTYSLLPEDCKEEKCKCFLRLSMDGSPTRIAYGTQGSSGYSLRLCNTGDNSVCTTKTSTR
Type: biochemical
Experimental: Compounds were evaluated for inhibition of the human activated kallikrein enzyme in two formats of an assay employing a fluorogenic peptide substrate. In one assay format, the concentrations of reagents were as follows: 20 mM Tris pH 7.5, 1 mM EDTA, 150 mM sodium chloride, 0.1% PEG-400, 0.1% Triton X-100, 500 pM activated kallikrein enzyme, 300 μM Pro-Phe-Arg-7-amido-4-methylcoumarin (PFR-AMC) substrate. Prior to reaction initiation with substrate, enzyme and inhibitors were preincubated for 30 min at room temperature. After initiation with substrate, reactions were incubated for 10 min at room temperature and fluorescence emission at 460 nm from 380 nm excitation measured with a microplate reader. In another assay format, the concentrations of reagents were as follows: 20 mM Tris pH 7.5, 1 mM EDTA, 150 mM sodium chloride, 0.1% PEG-400, 0.1% Triton X-100, 5 pM activated kallikrein enzyme, 300 uM PFR-AMC substrate. Prior to reaction initiation with substrate, enzyme and inhibitors were preincubated for 30 min at room temperature. After initiation with substrate, reactions were incubated for 18 hr at room temperature and fluorescence emission at 460 nm from 380 nm excitation measured with a microplate reader.
Table 35 provides the results of the assay in the format with 500 pM activated kallikrein assay.

EC50 | Structure (SMILES)
10 to 100 nM | Cc1cc2c(N)nccc2c(C)c1CNc1cc(OC(C)c2ccc(Cn3cccn3)cc2)cnn1 (single isomer, unassigned) [Example 277, (S*)-6-(((5-(1-(4-((1H-pyrazol-1-yl)methyl)phenyl)ethoxy)pyridazin-3-yl)amino)methyl)-5,7-dimethylisoquinolin-1-amine]
< 1 nM | Cc1cc(CNc2cc(NCc3c(C)cc4c(N)nccc4c3C)ncn2)cc(C)c1CC(=O)N(C)C [Compound 360]
< 1 nM | Cc1ccc2cnc(Cn3cc(C(=O)NCc4c(C)cc5c(N)nccc5c4C)cn3)cc2c1 [Example 1, N-((1-amino-5,7-dimethylisoquinolin-6-yl)methyl)-1-((6-methylisoquinolin-3-yl)methyl)-1H-pyrazole-4-carboxamide]
1 to 10 nM | Cc1cc(Cn2cc(C(=O)NCc3c(C)cc4c(N)nccc4c3C)cn2)ccc1C1CC1 [Example 2, N-((1-amino-5,7-dimethylisoquinolin-6-yl)methyl)-1-(4-cyclopropyl-3-methylbenzyl)-1H-pyrazole-4-carboxamide]
100 to 1000 nM | Cc1ccc2nc(Cn3cc(C(=O)NCc4c(C)cc5c(N(C(=O)OC(C)C)C(=O)OC(C)C)nccc5c4C)cn3)cn2c1 [Example 3, diisopropyl (5,7-dimethyl-6-((1-((6-methylimidazo[1,2-a]pyridin-2-yl)methyl)-1H-pyrazole-4-carboxamido)methyl)isoquinolin-1-yl)iminodicarbonate]
10 to 100 nM | Cc1ccc2nc(Cn3cc(C(=O)NCc4c(C)cc5c(NC(=O)OCC(C)C)nccc5c4C)cn3)cn2c1 [Example 5, isobutyl (5,7-dimethyl-6-((1-((6-methylimidazo[1,2-a]pyridin-2-yl)methyl)-1H-pyrazole-4-carboxamido)methyl)isoquinolin-1-yl)carbamate]

The next lines start with the molecule.

Structure (SMILES) | EC50
Cc1ccc2nc(C(C)n3cc(C(=O)NCc4c(C)cc5c(N)nccc5c4C)cn3)cn2c1 (single isomer, unassigned) [Example 11, (R*)-N-((1-amino-5,7-dimethylisoquinolin-6-yl)methyl)-1-(1-(6-methylimidazo[1,2-a]pyridin-2-yl)ethyl)-1H-pyrazole-4-carboxamide] | < 1 nM
Cc1ccc2nc(C(C)n3cc(C(=O)NCc4c(C)cc5c(N)nccc5c4C)cn3)cn2c1 (single isomer, unassigned) [Example 12, (S*)-N-((1-amino-5,7-dimethylisoquinolin-6-yl)methyl)-1-(1-(6-methylimidazo[1,2-a]pyridin-2-yl)ethyl)-1H-pyrazole-4-carboxamide] | < 1 nM
Cc1cc2c(N)nccc2c(C)c1CNC(=O)c1cnn(CC(=O)N(C)c2ccccc2)c1 [Compound 155] | > 1000 nM
Cc1ccc2nc(Cn3cc(C(=O)NCc4c(C)cc5c(N(C(=O)OCc6ccccc6)C(=O)OCc6ccccc6)nccc5c4C)cn3)cn2c1 [Example 4, benzyl ((benzyloxy)carbonyl)(5,7-dimethyl-6-((1-((6-methylimidazo[1,2-a]pyridin-2-yl)methyl)-1H-pyrazole-4-carboxamido)methyl)isoquinolin-1-yl)carbamate] | > 1000 nM
Cc1ccc2nc(Cn3cc(C(=O)NCc4c(C)cc5c(NC(=O)OC(C)C)nccc5c4C)cn3)cn2c1 [Example 6, isopropyl (5,7-dimethyl-6-((1-((6-methylimidazo[1,2-a]pyridin-2-yl)methyl)-1H-pyrazole-4-carboxamido)methyl)isoquinolin-1-yl)carbamate] | 10 to 100 nM
Cc1ccc2nc(Cn3cc(C(=O)NCc4c(C)cc5c(NC(=O)OCc6ccccc6)nccc5c4C)cn3)cn2c1 [Example 7, benzyl (5,7-dimethyl-6-((1-((6-methylimidazo[1,2-a]pyridin-2-yl)methyl)-1H-pyrazole-4-carboxamido)methyl)isoquinolin-1-yl)carbamate] | 10 to 100 nM
CC(=O)Nc1nccc2c(C)c(CNC(=O)c3cnn(Cc4cn5cc(C)ccc5n4)c3)c(C)cc12 [Example 8, N-((1-acetamido-5,7-dimethylisoquinolin-6-yl)methyl)-1-((6-methylimidazo[1,2-a]pyridin-2-yl)methyl)-1H-pyrazole-4-carboxamide] | 10 to 100 nM
